According to ChEMBL document CHEMBL1201862, “PubChem BioAssay data set” (2004):
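In this assay, cells in 96-well plates receive the compound at five concentrations for 48 hours. Endpoints are linearly interpolated between the surrounding concentrations. Abbreviation: GI50, concentration required for 50% inhibition of growth.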 Active and inactive are the calls of the source. Cut-off read from the data, not from the text of the source: active = GI50 up to about 1.1 µM and inactive = higher.

How the values were obtained:
Assay in all cases: inhibition of tumour cell growth, NCI panel, 48 h
NCI-H226 = system: NCI-H226
HCT-116 = system: HCT-116
SNB-19 = system: SNB-19
786-0 = system: 786-0
OVCAR-8 = system: OVCAR-8
OVCAR-3 = system: OVCAR-3
SK-MEL-28 = system: SK-MEL-28
HOP-62 = system: HOP-62
SK-MEL-5 = system: SK-MEL-5
UACC-62 = system: UACC-62
U-251 = system: U-251
ACHN = system: ACHN
UO-31 = system: UO-31
HCC 2998 = system: HCC 2998
OVCAR-4 = system: OVCAR-4
M14 = system: M14
NCI-H460 = system: NCI-H460

Measured: GI50

C/C(CN1C(=O)c2ccccc2C1=O)=N\NS(=O)(=O)c1cccc(C(=O)O)c1
inactive: NCI-H226 > 100 µM | HCT-116 > 100 µM | SNB-19 > 100 µM | 786-0 > 100 µM | OVCAR-8 > 100 µM | OVCAR-3 > 100 µM | SK-MEL-28 > 100 µM | HOP-62 > 100 µM | SK-MEL-5 > 100 µM | UACC-62 > 100 µM | U-251 > 100 µM | ACHN > 100 µM | UO-31 > 100 µM | HCC 2998 > 100 µM | OVCAR-4 > 100 µM | M14 > 100 µM | NCI-H460 > 100 µM

CCOC(=O)c1c2ccc(/C=C/c3ccccc3)ccc-2c(C(=O)OCC)c1N
inactive: NCI-H226 > 100 µM | HCT-116 > 100 µM | SNB-19 > 100 µM | 786-0 > 100 µM | OVCAR-3 > 100 µM | SK-MEL-28 > 100 µM | SK-MEL-5 > 100 µM | UACC-62 73.6 µM | ACHN > 100 µM | UO-31 > 100 µM | HCC 2998 95.5 µM | OVCAR-4 34.1 µM | M14 > 100 µM | NCI-H460 > 100 µM

COc1nc(NC2OC(COC(C)=O)C(OC(C)=O)C(OC(C)=O)C2OC(C)=O)c(/N=C/C=N/c2c(NC3OC(COC(C)=O)C(OC(C)=O)C(OC(C)=O)C3OC(C)=O)nc(OC)[nH]c2=O)c(=O)[nH]1 (stereo not drawn)
inactive: NCI-H226 > 100 µM | HCT-116 > 100 µM | SNB-19 > 100 µM | 786-0 > 100 µM | OVCAR-8 > 100 µM | OVCAR-3 > 100 µM | SK-MEL-28 > 100 µM | HOP-62 > 100 µM | SK-MEL-5 > 100 µM | UACC-62 > 100 µM | U-251 > 100 µM | ACHN > 100 µM | UO-31 > 100 µM | HCC 2998 > 100 µM | OVCAR-4 > 100 µM | M14 > 100 µM

Cc1cc(C)nc(NS(=O)(=O)c2ccc(NC(=O)c3ccc(Cl)c4c(Nc5ccc(S(=O)(=O)Nc6cc(C)on6)cc5)c5ccccc5nc34)cc2)n1
inactive: NCI-H226 17.5 µM | HCT-116 20.4 µM | SNB-19 17 µM | 786-0 17 µM | OVCAR-8 15.5 µM | OVCAR-3 16.6 µM | SK-MEL-28 18.4 µM | HOP-62 16.3 µM | SK-MEL-5 16.4 µM | UACC-62 17.1 µM | U-251 15.3 µM | ACHN 18.9 µM | UO-31 17.6 µM | HCC 2998 18.7 µM | OVCAR-4 16.7 µM | M14 18.8 µM | NCI-H460 18 µM

CC1(OCc2ccccc2)C(=O)N2C1NCC2(C)C (stereo not drawn)
inactive: NCI-H226 > 100 µM | HCT-116 > 100 µM | SNB-19 > 100 µM | 786-0 > 100 µM | OVCAR-8 > 100 µM | OVCAR-3 > 100 µM | SK-MEL-28 > 100 µM | HOP-62 > 100 µM | SK-MEL-5 > 100 µM | UACC-62 > 100 µM | U-251 > 100 µM | ACHN > 100 µM | UO-31 86.5 µM | HCC 2998 > 100 µM | OVCAR-4 > 100 µM | M14 > 100 µM | NCI-H460 > 100 µM

CCN1c2ccccc2C(C(SC)S(=O)(=O)c2ccc(C)cc2)c2c1[nH]c(=O)n(C)c2=O (stereo not drawn)
inactive: NCI-H226 > 100 µM | HCT-116 > 100 µM | SNB-19 > 100 µM | 786-0 > 100 µM | OVCAR-8 > 100 µM | OVCAR-3 > 100 µM | SK-MEL-28 > 100 µM | HOP-62 > 100 µM | SK-MEL-5 > 100 µM | UACC-62 > 100 µM | U-251 > 100 µM | UO-31 > 100 µM | HCC 2998 > 100 µM | OVCAR-4 > 100 µM

CSc1nc(SC)c2c(C#N)n[nH]c2n1
inactive: NCI-H226 > 100 µM | SNB-19 > 100 µM | 786-0 > 100 µM | OVCAR-8 > 100 µM | OVCAR-3 > 100 µM | SK-MEL-28 > 100 µM | HOP-62 > 100 µM | SK-MEL-5 > 100 µM | UACC-62 > 100 µM | U-251 > 100 µM | ACHN > 100 µM | UO-31 > 100 µM | HCC 2998 > 100 µM | OVCAR-4 > 100 µM | M14 > 100 µM | NCI-H460 > 100 µM

CCOC(=O)C1=C(C)Nc2ccccc2S1
inactive: NCI-H226 > 100 µM | HCT-116 > 100 µM | SNB-19 > 100 µM | 786-0 > 100 µM | OVCAR-3 > 100 µM | SK-MEL-28 > 100 µM | HOP-62 > 100 µM | SK-MEL-5 > 100 µM | UACC-62 3.21 µM | U-251 > 100 µM | ACHN > 100 µM | UO-31 > 100 µM | HCC 2998 > 100 µM | OVCAR-4 > 100 µM | M14 > 100 µM | NCI-H460 > 100 µM

O=c1[nH]c(=O)n(C2CC(O)C(CO)O2)cc1OS(=O)(=O)C(F)(F)F (stereo not drawn)
inactive: NCI-H226 > 100 µM | HCT-116 > 100 µM | SNB-19 > 100 µM | 786-0 > 100 µM | OVCAR-8 > 100 µM | OVCAR-3 > 100 µM | SK-MEL-28 > 100 µM | HOP-62 > 100 µM | SK-MEL-5 > 100 µM | UACC-62 38.9 µM | U-251 > 100 µM | ACHN > 100 µM | HCC 2998 > 100 µM | OVCAR-4 > 100 µM | M14 > 100 µM | NCI-H460 > 100 µM
